≈ marks a conversion by molar mass, not a printed value. Like-named read-outs stand apart in the source and are kept apart here.
Tests used:
Type in all cases: physicochemical
[1] = Log P of the active agent
Description: Log P: The Log P value of an active agent is defined as the base 10 logarithm of the ratio of (1) the active agent concentration in an octanol phase to (2) the active agent concentration in a water phase when the two phases are in equilibrium with each other, is a widely accepted measure of lipophilicity. The Log P value may be measured experimentally or calculated using methods known in the art. The Log P value may be estimated experimentally by determining the ratio of the drug solubility in octanol to the drug solubility in water. When using a calculated value for the Log P value, the highest value calculated using any generally accepted method for calculating Log P is used.

[2] = pKa (base) of the active agent
[3] = Crystalline and amorphous solubility of the active agent in SIF / gastric buffer

Compound: C#Cc1cccc(Nc2ncnc3cc(OCCOC)c(OCCOC)cc23)c1 [Erlotinib]
- Log P [1]: 2.8
- pKa [2]: 5.3
- solubility ([3]; 0.5% SIF (simulated intestinal fluid), fassgf or other biorelevant, amorphous, 0.5% SIF, read-out: amorphous solubility in 0.5% SIF): ~380 µg/mL (≈ 966 µM)
- solubility ([3]; gastric buffer (GB), simulated gastric fluid, thermodynamic from solid, crystalline, gastric buffer, read-out: crystalline solubility in gastric buffer (GB)): 182 µg/mL (≈ 463 µM)

Compound: Posaconazole
- Log P [1]: 4.5
- pKa (base) [2]: 4.5
